Test results published in patent US20230149355A1, “COMPOSITIONS AND METHODS FOR MODULATING TRP CHANNEL ACTIVITY” (priority 2020, published 2023).

Key:
zebrafish EECs = experiment: In vivo EEC activity, Tg(neurod1:CaMPARI) zebrafish
Excerpt: CaMPARI undergoes permanent green-to-red photoconversion (PC) under 405 nm light when calcium is present. This permanent conversion records the calcium activity for all areas illuminated by PC-light. Red fluorescence intensity correlates with calcium activity during photoconversion (Fosque et al., 2015). In the Tg(neurod1:CaMPARI) zebrafish line, the CaMPARI (calcium-modulated photoactivatable ratiometric integrator) transgene is expressed under control of the −5 kb promoter cloned from the zebrafish neurod1 locus. CaMPARI mRNA is transcribed and the CaMPARI protein is expressed in cells that are able to activate the neurod1 promoter. There are multiple cell types in the zebrafish body that are sufficient to activate the neurod1 promoter, including all EECs in the intestine (Ye et al., 2019). CaMPARI protein is a calcium indicator protein that binds calcium and converts from green fluorescence to red fluorescence in the presence of UV light. This protein is engineered and described in detail in a previous publication (Fosque et al., 2015). This transgenic model was used to measure the level of intracellular calcium in EECs. […]

mouse duodenum = experiment: Amperometric measurement of 5-HT secretion, mouse small intestine; conditions: 50 μM HC030031
Excerpt: (§1) These experiments using C57BL/6J mice were approved by the Flinders University Animal Welfare Committee (number 965-19) and human ileum tissue was collected from resected small and large intestine from patients that gave written informed consent under the approval of the Southern Adelaide Clinical Human Research Ethics Committee (number 50.07) as previous (Sun et al., 2019a). Mice were euthanized at 8 to 12 weeks by isoflurane overdose followed by cervical dislocation. The duodenum was removed and placed in Krebs solution oxygenated with 95% O2, 5% CO2. A midline incision was made along the duodenum to create a flat sheet, the section was pinned with the mucosal side up in an organ bath lined with Sylgard and containing oxygenated Krebs solution. Serotonin release was measured using amperometry. A carbon-fibre electrode (5-μm diameter, ProCFE; Dagan Corporation, Minneapolis, Minn.), was lowered above the mucosa and 400 mV potential was applied to the electrode causing oxidation of serotonin (Zelkas et al., 2015). […] The change in amplitude due to serotonin oxidation was recorded using an EPC-10 amplifier and Pulse software (HEKA Electronic, Lambrecht/Pfalz, Germany), and samples at 10 kHz and low-pass filtered at 1 kHz. Data was assessed as peak current during each treatment. Data was analyzed comparing all groups using one-way ANOVA with Tukey's post-hoc test. […]

human ileum = experiment: Amperometric measurement of 5-HT secretion, human small intestine; conditions: 50 μM HC030031
Excerpt: as §1

vagal sensory neurons [1] = experiment: pERK immunofluorescence of vagal ganglia after microgavage; type: in vivo, zebrafish
Description: To quantify vagal activity by pERK staining, published protocol with slight modification (Randlett et al., 2015) was used. Zebrafish larvae were quickly collected by funneling through a 0.75 mm cell strainer and dropped into a 5 mL petri dish containing ice cold fix buffer (2.5% formalin+0.25% Triton 100). Larvae were fixed overnight at 4° C., then washed 3 times in PT (PBS+0.3% Triton 100), treated with 150 mM Tris-HCl (PH=9) for 15 mins at 70° C., washed with PT and digested with 0.05% trypsin-EDTA on ice for 45 mins. Following digestion, samples were then washed with PT and transferred into block solution [PT+1% bovine serum albumin (BSA, Fisher)+2% normal goat serum (NGS, Sigma)+1% dimethyl sulfoxide (DMSO)]. The primary antibodies [pERK (Cell signaling); tERK (Cell signaling); GFP (Aves Lab)] were diluted in block solution (1:150 for pERK; 1:150 for tERK and 1:500 for GFP) and samples were incubated in 100 μl of primary antibody overnight at 4° C. Following primary antibody incubation, samples were then washed with PT and incubated with secondary antibody overnight at 4° C. Samples were then washed with PBS, mounted in 1% LMA and imaged using a Zeiss 780 upright confocal microscope.
For delivering bacterial or chemicals specifically to the intestine, the established microgavage technique (Cocchiaro and Rawls, 2013) was adopted. […]

vagal sensory neurons [2] = experiment: In vivo calcium imaging of vagal sensory ganglia after microgavage; set-up: species or system zebrafish; conditions: WT; enteric microgavage ~8 nl, AITC 100 mM, indole 1 mM, IAld 1 mM
Description: For delivering bacterial or chemicals specifically to the intestine, the established microgavage technique (Cocchiaro and Rawls, 2013) was adopted. Zebrafish were anesthetized with 1 mg/mL α-Bungarotoxin (α-BTX) and the gavage procedure was performed as previously described using microinjection station (Cocchiaro and Rawls, 2013). For bacteria gavage experiments, 1 ml of overnight bacterial culture was harvested, pelleted, washed with PBS and resuspended in 100 ul PBS.˜8 nl was then delivered into the zebrafish intestine using microgavage. The gavaged zebrafish was then transferred into egg water and mounted in 1% LMA for imaging. For chemical gavage experiments, ˜8 nl of AITC (100 mM), indole (1 mM) and IAld (1 mM) was gavaged into the intestine.
Tg(neurod1:Gcamp6f); Tg(neurod1:TagRFP) zebrafish were used to record vagal sensory ganglia calcium activity in vivo. Zebrafish were anesthetized with 1 mg/mL α-Bungarotoxin (α-BTX) and gavaged with chemical compounds or bacteria as described (Naumann et al., 2016). Zebrafish larvae were mounted in 1% LMA and imaged under a Zeiss 780 upright confocal microscope. Z-stack images of the entire vagal ganglia were collected as serial images at 10 mins/frame and processed in FIJI. Individual vagal sensory neurons were identified and the Gcamp6f to TagRFP fluorescence ratios of individual vagal sensory neurons were calculated.

zebrafish EECs (Trpa1) = experiment: In vivo EEC calcium, Tg(neurod1:Gcamp6f) zebrafish; conditions: trpa1b-dependent
Description: To record in vivo EEC activity using the Tg(neurod1:Gcamp6f) system, a published protocol with slight modification (Ye et al., 2019) was used. In brief, unanesthetized zebrafish larvae were gently mounted in 3% methylcellulose. Excess water was removed and zebrafish larvae were gently positioned with right side up. Zebrafish were then moved onto an upright Leica M205 FA fluorescence stereomicroscope equipped with a Leica DFC 365FX camera. The zebrafish larvae were allowed to recover for 2 mins before 100 μL of test agent was pipetted directly in front of the mouth region. Images were then recorded every 10 seconds. The data shown in FIG. 2O-R, depicting the EEC responses to E. tarda stimulation, were obtained by mounting unanesthetized zebrafish larvae in 1% low melting agarose. A window (5×5 mm) was cut to expose the head region of the zebrafish. 10 μL of E. tarda culture [˜10^9 Colony Forming Unit (CFU)] were delivered at the zebrafish mouth area. Images were recorded every 10 secs for 20 mins. Image processing and analysis were performed using FIJI software. Time-lapse fluorescence images were first aligned to correct for experimental drift using the plugin “align slices in stack.” Normalized correlation coefficient matching and bilinear interpolation methods for subpixel translation were used for aligning slices (Tseng et al., 2012). The plugin “rolling ball background subtraction” with the rolling ball radius=10 pixels was used to remove the large spatial variation of background intensities. The Gcamp6f fluorescence intensity in the intestinal region was then calculated for each time point. The ratio of maximum fluorescence (Fmax) and the initial fluorescence (F0) was used to measure EEC calcium responses.
For EEC Trpa1 activation using the Optovin platform, zebrafish larvae were treated with 10 μM Optovin overnight. Following Optovin treatment, unanesthetized zebrafish were mounted in 1% LMA and imaged under a 780 upright Zeiss confocal microscope using 20× water objective lenses. For all the experiments, the mid-intestine region was imaged (FIG. 10D). The intestinal epithelium was selected as the region of interest (ROI) (FIG. 10A). Serial images were obtained at 1 s/frame. A 405 nm pulse of light was applied to the ROI at 1 pulse/10 s. For some experiments (FIG. 7D-F, FIG. 10B-G), the images were obtained at 10 s/frame. When measuring Optovin effects on intestinal motility in ret−/−, sox10−/− or tph1b−/− zebrafish larvae, embryos were collected from heterozygous zebrafish. ret−/− zebrafish were identified by lack of ENS and deflated swim bladder (Knight et al., 2011), sox10−/− zebrafish were identified by lack of pigment (Rolig et al., 2017), and tph1b−/− zebrafish were identified by PCR-based genotyping (Tornini et al., 2017).
To determine whether Optovin-UV or ChR2 was sufficient to activate EECs, Tg(neurod1:Gcamp6f) zebrafish were used. […] The Gcamp6f signal was recorded with 488 nm laser intensity less than 0.5. The zebrafish intestinal motility is quantified through recorded image series of zebrafish intestine using the method similar as previously described (Ganz et al., 2018). […] When calculating the mean velocity, only the mean velocity magnitude was calculated, which therefore doesn't account for the movement direction. The MTrackJ FIJI plugin was used to quantify the mean velocity magnitude (Meijering et al., 2012).

CCCCCCCCCCCC(=O)O [laurate]
Percentage of activated EECs (high red:green CaMPARI ratio) (zebrafish EECs; linoleate, oleate, laurate 1.66 mM, butyrate 2 mM, glucose 500 mM, vs water): significantly increased

CC(C)c1ccc(NC(=O)Cn2cnc3c2c(=O)n(C)c(=O)n3C)cc1 [HC030031]
Effect on indole-induced 5-HT secretion, mouse small intestine (mouse duodenum): blocked
Effect on indole-induced 5-HT secretion, human small intestine (human ileum): blocked
Effect on E. tarda's ability to induce EEC activation (zebrafish EECs; WT fish, HC030031 280 μM, 2 hours before and during E. tarda stimulation): significantly inhibited

C=CCN=C=S [AITC, Allyl isothiocyanate]
Vagal activation (pERK+) in the absence of EECs (vagal sensory neurons [1]; EEC-ablated zebrafish): abrogated
Number of pERK+ vagal cells (vagal sensory neurons [1]; WT, microgavage, compared to PBS): increased
Gcamp6f fluorescence in a subset of vagal sensory neurons (vagal sensory neurons [2]): significantly increased
Zebrafish EEC activation (Gcamp6f fluorescence) (zebrafish EECs (Trpa1)): EEC activation
